Activity calls are given as the source filed them.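 Rule for the calls: active = IC50 at or below ten times the top tested concentration; inconclusive = flat fit at 30 to 70% inhibition, or invalid poor fit; inactive = IC50 beyond ten times the top tested dose.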
Each compound was assayed against POS-1 (Caenorhabditis elegans) binding to mex-3 RNA (assay: disruptors of C. elegans POS-1 RNA interaction – biochemical, fluorescence polarization, up to 135 µM, dose response (AID 2738)). Settings: POS-1-MBP / FITC mex-3 RNA.

Row | SMILES | IC50
1 | O=c1c(O)cccc2cc(O)c(O)c(O)c12 | 11.9 µM
2 | Cc1ccc(N2C(=O)NC(=O)/C(=C\c3cc(C)n(-c4ccc(C(=O)O)cc4)c3C)C2=O)cc1 | > 135 µM (inactive)
3 | CCN(CC)c1ccc(/C=C2\C(=O)NC(=S)N(C)C2=O)o1 | > 135 µM (inactive)
4 | Cc1ncc(CO)c(/C=N/NC(=O)c2cc(Br)ccc2O)c1O | 51.2 µM
5 | Oc1ccc(CCNc2c3ccccc3nc3ccccc23)cc1O | > 135 µM (inactive)
6 | COc1ccc(-c2cn[nH]c2-c2ccc(OCC(=O)NN)cc2O)cc1OC | > 135 µM (inactive)
7 | Cn1ncc2c(NNC(=O)Cc3ccccc3)ncnc21 | 127 µM
8 | CCOC(=O)c1cc(CC)sc1/N=C/c1c(O)[nH]c(=S)[nH]c1=O | 45.5 µM
9 | ON=C1/C(=N\O)CC2(C/C1=N/O)OCCO2 | > 135 µM (inactive)
10 | Cc1nc2ccccc2c(=O)n1/N=C/c1ccc(O)c(O)c1O | 16.9 µM
11 | COCCCNC(=O)CCC(=O)NNc1nc2ccccc2c2nc(C)nn12 | 8.56 µM
12 | CC1=C(C(=O)OCc2ccccc2)C(c2ccccc2[N+](=O)[O-])NC(=O)N1C (stereo not given) | 25.6 µM
13 | NC(CO)C(=O)NNCc1ccc(O)c(O)c1O (stereo not given) | > 135 µM (inactive)
14 | O=C(NNC(=O)c1ccccc1[N+](=O)[O-])c1csc(N2CCOCC2)n1 | 119 µM
15 | CCc1ccccc1N1C(=O)/C(=C\c2ccc(N3CCN(C)CC3)o2)C(=O)NC1=S | > 135 µM (inactive)
16 | CCN(CC)c1ccc(/C=C2\C(=O)NC(=S)N(c3ccc(OC)cc3OC)C2=O)o1 | > 135 µM (inactive)
17 | N=c1c(C(=O)NC2CCCCC2)cc2c(=O)n3ccccc3nc2n1Cc1cccnc1 | > 350 µM (inactive)
18 | CCCCN(C)C(=O)CCC(=O)NNc1nc2ccccc2c2nc(C)nn12 | 62.3 µM
19 | O=CN/N=C/c1c(O)ccc2ccccc12 | 22 µM
20 | CCN(CC)CCCNC(=O)CCC(=O)NNc1nc2ccccc2c2nc(C)nn12 | 2.2 µM
